Laboratory results as given in ChEMBL document CHEMBL1129601, “Inhibitors of acyl-CoA: cholesterol O-acyl transferase (ACAT) as hypocholesterolemic agents. CI-1011: an acyl sulfamate with unique cholesterol-lowering activity in animals fed noncholesterol-supplemented diets” (J Med Chem, 1996).

Experiments:
Assay type in all cases: ADME
[1] = Solution Degradation Studies measured by compound unchanged at pH 0.4=50% 1 M HCl/50% acetonitrile at 8 hours; details: 50% 1 M HCl / 50% acetonitrile solution, read-out: Unchanged
[2] = Solution Degradation Studies measured by compound unchanged at pH 0.4=50% 1 M HCl/50% acetonitrile at 4 hours; details: 50% 1 M HCl / 50% acetonitrile solution, read-out: Unchanged
[3] = Solution Degradation Studies measured by compound unchanged at pH 0.4=50% 1 M HCl/50% acetonitrile at 0 hours; details: 50% 1 M HCl / 50% acetonitrile solution, read-out: Unchanged
[4] = Solution Degradation Studies measured by compound unchanged at pH 6.4 = 50% water / 50% acetonitrile at 8 hours; details: 50% water / 50% acetonitrile solution, read-out: Unchanged
[5] = Solution Degradation Studies measured by compound unchanged at pH 6.4 = 50% water / 50% acetonitrile at 4 hours; details: 50% water / 50% acetonitrile solution, read-out: Unchanged
[6] = Solution Degradation Studies measured by compound unchanged at pH 0.4=50% 1 M HCl/50% acetonitrile at 2 hours; details: 50% 1 M HCl / 50% acetonitrile solution, read-out: Unchanged
[7] = Solution Degradation Studies measured by compound unchanged at pH 0.4=50% 1 M HCl/50% acetonitrile at 24 hours; details: 50% 1 M HCl / 50% acetonitrile solution, read-out: Unchanged
[8] = Solution Degradation Studies measured by compound unchanged at pH 6.4 = 50% water / 50% acetonitrile at 24 hours; details: 50% water / 50% acetonitrile solution, read-out: Unchanged
[9] = Solution Degradation Studies measured by compound unchanged at pH 6.4 = 50% water / 50% acetonitrile at 0 hours; details: 50% water / 50% acetonitrile solution, read-out: Unchanged
[10] = Solution Degradation Studies measured by compound unchanged at pH 6.4 = 50% water / 50% acetonitrile at 2 hours; details: 50% water / 50% acetonitrile solution, read-out: Unchanged
[11] = Solution Degradation Studies measured by compound unchanged at pH 0.4=50%1 M HCl/50% acetonitrile at 4 hours; details: 50% 1 M HCl / 50% acetonitrile solution, read-out: Unchanged
[12] = Solution Degradation Studies measured by compound unchanged at pH 0.4=50%1 M HCl/50% acetonitrile at 0 hours; details: 50% 1 M HCl / 50% acetonitrile solution, read-out: Unchanged
[13] = Solution Degradation Studies measured by compound unchanged at pH 0.4=50%1 M HCl/50% acetonitrile at 24 hours; details: 50% 1 M HCl / 50% acetonitrile solution, read-out: Unchanged
[14] = Solution Degradation Studies measured by compound unchanged at pH 0.4=50%1 M HCl/50% acetonitrile at 8 hours; details: 50% 1 M HCl / 50% acetonitrile solution, read-out: Unchanged
[15] = Solution Degradation Studies measured by compound unchanged at pH 0.4=50%1 M HCl/50% acetonitrile at 2 hours; details: 50% 1 M HCl / 50% acetonitrile solution, read-out: Unchanged

| Compound | remaining at 8 h [1] [%] | remaining at 4 h [2] [%] | remaining at 0 h [3] [%] | remaining at 8 h [4] [%] | remaining at 4 h [5] [%] | remaining at 2 h [6] [%] | remaining at 24 h [7] [%] | remaining at 24 h [8] [%] | remaining at 0 h [9] [%] | remaining at 2 h [10] [%] | remaining at 4 h [11] [%] | remaining at 0 h [12] [%] | remaining at 24 h [13] [%] | remaining at 8 h [14] [%] | remaining at 2 h [15] [%] |
| --- | --- | --- | --- | --- | --- | --- | --- | --- | --- | --- | --- | --- | --- | --- | --- |
| Cc1cccc(C)c1OC(=O)NS(=O)(=O)Oc1c(C(C)C)cccc1C(C)C | 37 | 57 | 93 | 48 | 65 | 71 | 5 | 20 | 94 | 79 | – | – | – | – | – |
| CC(C)c1cccc(C(C)C)c1OC(=O)NS(=O)(=O)Oc1c(C(C)C)cccc1C(C)C [listing 1 of 2 here] | – | – | – | 100 | 100 | – | – | 100 | 100 | 100 | 83 | 100 | 25 | 68 | 92 |
| CC(C)c1cccc(C(C)C)c1OC(=O)NS(=O)(=O)Oc1c(C(C)C)cccc1C(C)C [listing 2 of 2 here] | 66 | 80 | 95 | 74 | 85 | 88 | 23 | 37 | 95 | 87 | – | – | – | – | – |
| CC(C)c1cccc(C(C)C)c1OS(=O)(=O)NC(=O)Oc1c(C(C)(C)C)cccc1C(C)(C)C | 98 | 99 | 100 | 99 | 99 | 100 | 97 | 98 | 100 | 100 | – | – | – | – | – |
